Values of other authors, collected in US20100256082A1, “Metallo-hydrolase inhibitors using metal binding moietes in combination with targeting moieties” (Viamet Pharmaceuticals, Inc., priority 2006, published 2010).

What was measured:
[1] = molecular target: PDE3A (Homo sapiens, UniProt Q14432, T844A); conditions: T844 to Ala mutant versus PDE3A
[2] = tested on: RDP; conditions: read-out: 50% inhibitory concentration; reversible, competitive inhibitor of RDP

Chain of PDE3A (Q14432 whole entry T844A): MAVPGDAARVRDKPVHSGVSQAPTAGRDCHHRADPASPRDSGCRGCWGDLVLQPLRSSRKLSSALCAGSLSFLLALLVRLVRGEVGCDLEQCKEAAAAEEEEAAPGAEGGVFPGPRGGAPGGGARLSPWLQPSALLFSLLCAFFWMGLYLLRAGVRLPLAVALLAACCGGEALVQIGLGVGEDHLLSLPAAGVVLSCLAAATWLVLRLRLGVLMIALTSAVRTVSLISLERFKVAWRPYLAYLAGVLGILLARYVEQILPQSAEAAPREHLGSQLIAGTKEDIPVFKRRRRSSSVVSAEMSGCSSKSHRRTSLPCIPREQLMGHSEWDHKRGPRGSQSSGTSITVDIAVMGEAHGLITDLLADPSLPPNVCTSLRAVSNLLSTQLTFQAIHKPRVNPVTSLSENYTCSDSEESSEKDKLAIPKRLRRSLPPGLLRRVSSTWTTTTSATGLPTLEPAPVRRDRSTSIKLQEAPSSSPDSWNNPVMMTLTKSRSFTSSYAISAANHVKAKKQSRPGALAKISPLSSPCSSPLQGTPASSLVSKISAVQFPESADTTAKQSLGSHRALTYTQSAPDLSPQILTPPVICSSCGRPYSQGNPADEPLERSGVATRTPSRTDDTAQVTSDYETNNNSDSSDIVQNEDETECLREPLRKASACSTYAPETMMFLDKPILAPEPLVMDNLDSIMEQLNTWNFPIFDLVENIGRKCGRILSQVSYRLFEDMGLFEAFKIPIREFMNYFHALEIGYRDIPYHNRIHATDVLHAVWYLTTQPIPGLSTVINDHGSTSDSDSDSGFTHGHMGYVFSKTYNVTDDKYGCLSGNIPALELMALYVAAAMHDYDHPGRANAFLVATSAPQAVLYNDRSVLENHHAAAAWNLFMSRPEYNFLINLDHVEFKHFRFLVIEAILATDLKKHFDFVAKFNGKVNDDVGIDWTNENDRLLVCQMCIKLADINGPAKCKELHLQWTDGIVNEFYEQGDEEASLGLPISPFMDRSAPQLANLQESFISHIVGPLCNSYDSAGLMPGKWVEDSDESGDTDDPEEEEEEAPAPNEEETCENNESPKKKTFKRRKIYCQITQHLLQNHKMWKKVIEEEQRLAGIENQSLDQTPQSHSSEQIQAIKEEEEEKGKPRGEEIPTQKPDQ

| effect of mutation of T844 to Ala in PDE3A on the K [1] | other results | SMILES |
| --- | --- | --- |
|  | increase in Ki on mutation of T844 to Ala in PDE3A [1]: 25 fold | O=C1CCc2cc(OCCCCc3nnnn3C3CCCCC3)ccc2N1 [cilostazol] |
| no effect |  | Cc1[nH]c(=O)c(C#N)cc1-c1ccncc1 [milrinone] |
| no effect |  | Nc1nc2c(ncn2[C@@H]2O[C@@H]3COP(=O)(O)O[C@H]3[C@H]2O)c(=O)[nH]1 [cGMP] |
|  | IC50 [2]: 50.1 mM | CC1(C)C[C@@H]1C(=O)N/C(=C\CCCCSC[C@H](N)C(=O)O)C(=O)O [Cilastatin] |
